The data set is described as follows: rat acute oral toxicity. The settings on record: in vivo. The source says: […]The data set underlying the modeling effort for this project was initially compiled by NICEATM and U.S. EPA’s CCTE. Briefly, LD50 data were collected from rat acute oral systemic toxicity tests, including limit tests, ranges/confidence intervals, and discrete LD50 values. The full data set included 21,200 LD50 entries for 15,688 substances. […] Data were reviewed to ensure that LD50 values with obvious errors in the extracted data such as unit conversion errors (e.g., comma and decimal separator misplacements) were either fixed or removed. After this review, 16,209 LD50 values remained. Many of the chemicals represented had multiple LD50 entries, requiring that a single representative value per Chemical Abstracts Service Registry Number (CASRN) identifier be defined to facilitate modeling efforts. Based on ATWG feedback and to define the representative LD50 as a protective value while accounting for the distribution across multiple LD50s, the median of the lowest quartile was computed using only discrete LD50 values (omitting limit test data and range and confidence interval data). A detailed summary of the data compilation is available online on the NICEATM webpage dedicated to the collaborative modeling project (NTP 2020).
[…][…] For categorical designations, limit test and range/confidence interval LD50 data were integrated wherever possible. As such, the number of chemicals with end point values/calls varies across the modeling end points (Table 3) based on whether chemicals had representative LD50 values and/or other data. If a chemical had both, the representative value was used to determine categorical calls rather than limit test data. Some data were useable only for certain end points and categories depending on the thresholds. For example, ranges that spanned multiple hazard categories were considered only for the binary (very toxic/nontoxic) end points and omitted from rendering a determination for hazard category assignment.
[…]The final data set comprising 11,992 chemicals was split into training and evaluation sets […], respectively. This process was performed semirandomly by ordering chemicals based on the five end points (categorical and continuous LD50 values) and partitioning every fourth record into the evaluation set accordingly. This approach was taken to ensure an equivalent distribution of the LD50 values and the different hazard categories between the training and the evaluation sets without supervised sampling of the chemicals based on structures (Figure 1A). The sources of the chemical structures were also kept equivalent between the two sets, with chemical structures obtained from DSSTox, being the highest quality, representing over 75% of each set (Figure 1B).

SMILES strings stand for the structures.

Regarding `CCO`, the median lethal dose (LD50) (commonly the dose at which mortality reaches 50%) was found to be 7230 mg/kg. Compound `CCC(C)(CCC(C)C)C(=O)OOC(C)(C)C` (stereo unspecified) registered an LD50 of 8080 mg/kg. The LD50 values of the last two compounds are within 1.5-fold of each other. `CCCCOCCOCCOC(C)=O` registered a median lethal dose (LD50) of 6500 mg/kg. Consider `c1ccc2ncccc2c1`, for which the 50% lethal dose (LD50) turned out to be 331 mg/kg. This LD50 is about 20-fold lower than that of the compound before. `CC(C)O` registered an LD50 of 4710 mg/kg. As for `Cc1cccc([N+](=O)[O-])c1C`, the LD50 amounted to 2110 mg/kg. The figure for `CCCCCCCCCCCCN(C)C` is 740 mg/kg; for `C=C[Si](ON=C(C)CC)(ON=C(C)CC)ON=C(C)CC` it is 3520 mg/kg; for `CCOP(=S)(OCC)Oc1cc(Cl)c(SC)cc1Cl` it is 9.1 mg/kg. `ClC(Cl)(Cl)c1ccccc1` registered an LD50 of 1590 mg/kg. Against the preceding compound, the LD50 is about 170-fold higher.

As for `CCC(=O)OCc1ccccc1`, the LD50 stood at 3300 mg/kg. The figure for `CSCCC=O` is 490 mg/kg; for `O=C(Nc1ccc(Cl)c(Cl)c1)Nc1cc(Cl)ccc1Oc1ccc(Cl)cc1S(=O)(=O)O` it is 476 mg/kg; for `Cc1ccc(N)cc1N` it is 73 mg/kg. `CC(C)C#N` gave an LD50 of 50 mg/kg. For `c1ccncc1`, the 50% lethal dose (LD50) came out at 891 mg/kg. As for `O=C(O)C1C2CCC(O2)C1C(=O)O` (stereo unspecified), the median lethal dose (LD50) was 38 mg/kg. For `O=C(O)c1ccc2c(c1)C(=O)OC2=O`, the median lethal dose (LD50) came out at 2030 mg/kg. Compared with the last compound, the LD50 is about 53-fold higher.

The compound `CN(CCCCCC(=O)O)S(=O)(=O)c1ccccc1` (racemic) showed an LD50 of 3040 mg/kg.

As for `C[Si](C)(C)N[Si](C)(C)C`, the LD50 stood at 847 mg/kg.

The compound `CCNc1nc(Cl)nc(NC(C)(C)C#N)n1` yielded a 50% lethal dose (LD50) of 149 mg/kg. Then `CCOP(c1ccccc1)c1ccccc1`, with 316 mg/kg; and `CC(Cc1ccc(C(C)(C)C)cc1)CN1CC(C)OC(C)C1` (stereo unspecified), with 1670 mg/kg. For `Cc1ccc(O)cc1`, the LD50 was 207 mg/kg. This LD50 is about 8.1-fold lower than that of the compound before. Then `COc1ccccc1[N+](=O)[O-]`, with 740 mg/kg; and `CC(C)c1ccc2ccc(C(C)C)cc2c1`, with 4130 mg/kg; and `CCCCCC`, with 25000 mg/kg.

Turning to `CSc1ccc2c(c1)N(CCC1CCCCN1C)c1ccccc1S2` (stereo unspecified), the 50% lethal dose (LD50) was determined as 995 mg/kg. The compound `CN=C(O)Oc1cccc(C)c1` yielded an LD50 of 268 mg/kg. With `CCOC(=O)C(O)(c1ccc(Cl)cc1)c1ccc(Cl)cc1`, the LD50 is 700 mg/kg. Turning to `ClC(Cl)=C(Cl)Cl`, the LD50 is 2630 mg/kg. The compound `CC1(C)OC(c2ccco2)CN1C(=O)C(Cl)Cl` (stereo unspecified) had an LD50 of 521 mg/kg. Then `O=S(=O)(O)OCCOc1ccc(Cl)cc1Cl`, with 480 mg/kg; and `Cc1ccccc1C(OCCN(C)C)c1ccccc1` (stereo unspecified), with 255 mg/kg. In turn, `O=C1O[B-]2(OC1=O)OC(=O)C(=O)O2` showed an LD50 of 175 mg/kg.

As to `CC=Cc1ccc2c(c1)OCO2`, the 50% lethal dose (LD50) is 1300 mg/kg. `ClC1=C(Cl)C2(Cl)C3C(Cl)OC(Cl)C3C1(Cl)C2(Cl)Cl` (stereo unspecified) returned an LD50 of 4.8 mg/kg. `CS` registered a 50% lethal dose (LD50) of 116 mg/kg.

Regarding `C[C@@H](O)C(=O)O`, the 50% lethal dose (LD50) was found to be 3540 mg/kg. Consider `CCCCSP(=O)(SCCCC)SCCCC`, for which the 50% lethal dose (LD50) was 150 mg/kg. Turning to `NC(=S)Nc1cccc2ccccc12`, the LD50 came to 3 mg/kg.

`CC(COC(=O)c1ccccc1)OC(=O)c1ccccc1` (stereo unspecified): the LD50 turned out to be 2660 mg/kg.

Consider `CCC(C)C(C)C(C)CCc1ccc(O)cc1` (stereo unspecified), for which the LD50 turned out to be 2100 mg/kg. Then `CC(C)(C)c1ccc(CCOc2ncnc3ccccc23)cc1`, with 134 mg/kg.

Regarding `CCCCCCCC(=O)OC`, the LD50 was found to be 10100 mg/kg. Then `CCCCC(CC)COC(=O)c1ccccc1` (stereo unspecified), with 2500 mg/kg; and `COC(=O)c1ccccc1`, with 1180 mg/kg; and `CC(=O)c1ccccc1`, with 858 mg/kg. Consider `C=Cc1cc(Br)ccc1Br`, for which the LD50 came out at 5790 mg/kg. Consider `CC(=O)C=C(C)C`, for which the 50% lethal dose (LD50) turned out to be 300 mg/kg.

As to `O=Cc1ccncc1`, the LD50 was found to be 2170 mg/kg. This LD50 lies about 7.2-fold higher than the previous one. Consider `CC1CCC(CO)CC1` (stereo unspecified), for which the LD50 worked out at 707 mg/kg. In the case of `O=[N+]([O-])c1ccc(Cl)c([N+](=O)[O-])c1`, the 50% lethal dose (LD50) came out at 640 mg/kg. Then `CCCC1CC(C)(OC(C)=O)CCO1` (stereo unspecified), with 4300 mg/kg; and `CCCCCCCC/C=C\CCCCCCCCNCCCN`, with 500 mg/kg; and `CCOP(=S)(OCC)Oc1ccc(S(C)=O)cc1` (stereo unspecified), with 1.8 mg/kg. `CCCCCCCC[Si](OCC)(OCC)OCC` returned a 50% lethal dose (LD50) of 11500 mg/kg. For the compound `CC1(C)CC(N)CC(C)(C)N1`, the 50% lethal dose (LD50) worked out at 906 mg/kg. As for `CC(Cc1ccc(C(C)(C)C)cc1)CN1CCCCC1` (stereo unspecified), the LD50 was 1450 mg/kg. The compound `CN(C)C(CSC(N)=O)CSC(N)=O` had a median lethal dose (LD50) of 340 mg/kg. This LD50 lies about 4.3-fold lower than the previous one. In turn, `C=CC(=O)OCCO` yielded an LD50 of 548 mg/kg.

(Values after the CATMoS acute toxicity set (Mansouri et al. 2021).)
